Assay results: patent publication US9596857B2, “Insecticidal and miticidal mixtures of bifenthrin and cyano-pyrethroids” (FMC Corporation, priority 2005, dated 2017)

Assays:
Type in all cases: in vivo
[1] = system: twospotted spider mite (Tetranychus urticae [Koch]); experiment: Foliar leaf-dip test against twospotted spider mite on pinto bean plants; settings: technical, 96 h
Experimental: (§1) Candidate insecticide compositions were evaluated for activity in foliar evaluations against tobacco budworm (Heliothis virescens [Fabricius]), Colorado potato beetle (Leptinotarsa decemlineata [Say]), corn earworm (Helicoverpa zea [Boddie]), cotton aphid (Aphis gossypii [Glover]) and twospotted spider mite (Tetranychus urticae [Koch]). Each test included controls in which the formulation or test solution minus the active ingredients were applied.
In tests against twospotted spider mites, the leaves of potted 3 to 4 inch tall pinto bean plants (Phaseolus vulgaris) were infested with about 50 to 75 adult twospotted spider mites by placing leaf cuttings from a twospotted spider mite colony host pinto bean plant on the upper surface of the test plant leaves. After about 1 hour the newly infested pinto bean leaves were dipped into the test solutions of the test formulations to provide application rates as high as 1000 ppm of the active ingredients. The test formulations were dissolved in, and diluted as necessary, with distilled water containing 10% acetone and 0.25% of a non-ionic detergent [an octylphenolpoly(ethyleneglycolether)x, available from Roche Applied Science as Triton X-100] to the proper concentrations. The treated plants were transferred to a hood where they were kept until the leaves had dried. Once dry, the potted plants were placed into a tray containing at least one inch of water. The plants were spaced far enough apart to prevent the mites from moving between plants. The trays were held in a growth chamber for 96 hours at 25° C., 50% relative humidity and a photoperiod of 14 hours light/10 hours dark. For tests in which the active ingredients were not formulated, i.e. the technical active ingredient was used; a stock solution of the test compound was made. For example, a 100 ppm stock solution may be made by dissolving 4 milligrams of the test compound in 4 mL of acetone and adding the solution to 36 mL of an aqueous Triton X-100 solution (one drop of Triton X-100 dissolved in 100 mL of distilled water). Further dilutions can be made by adding distilled water containing 10% acetone and 0.25% of Triton X-100.
(§2) At the end of the 96 hour exposure period the numbers of dead and live insects were counted. […] Using the insect counts, the activity of the test chemical was expressed in percent control. Percent control is derived from the total number of dead insects (TD) compared to the total number of insects (TI) in the test: […]

[2] = system: corn earworm (Helicoverpa zea [Boddie]); experiment: Cotton leaf-disc dip test against corn earworm; settings: technical, 96 h
Experimental: as §1
In tests against corn earworm, one inch diameter leaf discs cut from cotton plant leaves (Gossypium hirsutum) were dipped into the test solutions of the test formulations to provide application rates as high as 1000 ppm of the active ingredients. The test formulations were dissolved in distilled water containing 10% acetone and 0.25% of a non-ionic detergent [an octylphenolpoly(ethyleneglycolether)x, available from Roche Applied Science as Triton X-100] to the proper concentrations. Cotton wicks, 0.5 inch diameter by 2 inches long, were soaked with distilled water and placed into the wells of a 32 well rearing tray (available as Rearing Tray Bio-Fit 32, from C-D International, Pittman, N.J.), one wick per well. Treated leaf discs were placed on top of the cotton wicks, one leaf disc per wick, and the rearing tray was transferred to a hood where they were kept until the leaf discs had dried. Each disc was infested with 1 late second to early third instar corn earworm, replicated sixteen times per rate of application, and a lid was placed on the rearing tray. The rearing trays were held in a growth chamber for 96 hours at 25° C., 50% relative humidity and a photoperiod of 12 hours light/12 hours dark. For tests in which the active ingredients were not formulated, i.e. the technical active ingredient was used; a stock solution of the test compound was made. For example, a 100 ppm stock solution may be made by dissolving 4 milligrams of the test compound in 4 mL of acetone and adding the solution to 36 mL of an aqueous Triton X-100 solution (one drop of Triton X-100 dissolved in 100 mL of distilled water). Further dilutions can be made by adding distilled water containing 10% acetone and 0.25% of Triton X-100.
as §2, with “period, the rearing tray was opened, and” for “period”

[3] = system: Colorado potato beetle (Leptinotarsa decemlineata [Say]); experiment: Foliar leaf-dip test against adult Colorado potato beetle on tomato plants; settings: technical, 72 h
Experimental: as §1
In tests against adult Colorado potato beetle, the leaves of 6-8 inch tall tomato plants (Lycopersicon lycoper) were dipped into the test solutions of the test formulations to provide application rates as high as 1000 ppm of the active ingredients. The test formulations were dissolved in distilled water containing 10% acetone and 0.25% of a non-ionic detergent [an octylphenolpoly(ethyleneglycolether)x, available from Roche Applied Science as Triton X-100] to the proper concentrations. The treated plants were transferred to a hood where they were kept until the leaves had dried. For tests in which the active ingredients were not formulated, i.e. the technical active ingredient was used; a stock solution of the test compound was made. For example, a 100 ppm stock solution may be made by dissolving 4 milligrams of the test compound in 4 mL of acetone and adding the solution to 36 mL of an aqueous Triton X-100 solution (one drop of Triton X-100 dissolved in 100 mL of distilled water). Further dilutions can be made by adding distilled water containing 10% acetone and 0.25% of Triton X-100.
The treated tomato plants were removed from their pots by cutting the stems just above the soil line. Each excised plant was placed into an individual 8-ounce paper cup. Ten adult Colorado potato beetles were placed into each paper cup, taking care not to cause injury. An opaque plastic lid was placed on each cup, for a 72 hour exposure period and held at 25° C., 50% relative humidity with a photo-period of 12 hours light and 12 hours dark. At the end of the 72 hour exposure period, the cups were opened, and the numbers of dead and live insects were counted. Using the insect counts, the activity of the test chemical was expressed in percent control. Percent control is derived from the total number of dead insects (TD) compared to the total number of insects (TI) in the test: […]

[4] = system: cotton aphid (Aphis gossypii [Glover]); experiment: Foliar leaf-dip test against cotton aphid on tomato plants; settings: technical, 72 h
Experimental: as §1
In tests against cotton aphid, the leaves of 6 to 8 inch tall tomato plants (Lycopersicon lycoper) were infested with about 50 cotton aphids by placing leaf cuttings from a cotton aphid colony host tomato plant. After about 12 hours the newly infested tomato leaves were dipped into the test solutions of the test formulations to provide application rates as high as 1000 ppm of the active ingredients. The test formulations were dissolved in, and diluted as necessary, with distilled water containing 10% acetone and 0.25% of a non-ionic detergent [an octylphenolpoly(ethyleneglycolether)x, available from Roche Applied Science as Triton X-1001 to the proper concentrations. After treatment, a square of parafilm was placed around the stem of each test plant, covering the soil of each pot in order to catch dead aphids that fall from the leaves. The treated plants were transferred to a hood where they were kept until the leaves had dried. Once dry, the potted plants were placed into a tray containing at least one inch of water. The plants were spaced far enough apart to prevent the aphids from moving between plants. The trays were held in a growth chamber for 72 hours at 25° C., 50% relative humidity and a photoperiod of 14 hours light/10 hours dark. For tests in which the active ingredients were not formulated, i.e. the technical active ingredient was used; a stock solution of the test compound was made. For example, a 100 ppm stock solution may be made by dissolving 4 milligrams of the test compound in 4 mL of acetone and adding the solution to 36 mL of an aqueous Triton X-100 solution (one drop of Triton X-100 dissolved in 100 mL of distilled water). Further dilutions can be made by adding distilled water containing 10% acetone and 0.25% of Triton X-100.
At the end of the 72 hour exposure period the numbers of dead and live insects were counted. Insects were classified as “dead” if they were off-color or brown and desiccated. Using the insect counts, the activity of the test chemical was expressed in percent control. Percent control is derived from the total number of dead insects (TD) compared to the total number of insects (TI) in the test: […]

[5] = cyano-pyrethroid 10.0 ppm alone (bifenthrin 0 ppm)
[6] = cyano-pyrethroid 30.0 ppm alone (bifenthrin 0 ppm)
[7] = cyano-pyrethroid 60.0 ppm alone (bifenthrin 0 ppm)
[8] = cyano-pyrethroid 100.0 ppm alone (bifenthrin 0 ppm)
[9] = cyano-pyrethroid 0.3 ppm alone (bifenthrin 0.0 ppm)
[10] = cyano-pyrethroid 1.0 ppm alone (bifenthrin 0.0 ppm)
[11] = cyano-pyrethroid 3.0 ppm alone (bifenthrin 0.0 ppm)
[12] = cyano-pyrethroid 10.0 ppm alone (bifenthrin 0.0 ppm)
[13] = cyano-pyrethroid 0.3 ppm alone (bifenthrin 0 ppm)
[14] = cyano-pyrethroid 1.0 ppm alone (bifenthrin 0 ppm)
[15] = cyano-pyrethroid 3.0 ppm alone (bifenthrin 0 ppm)
[16] = cyano-pyrethroid 200.0 ppm alone (bifenthrin 0 ppm)

| Structure (SMILES) | % Mortality Twospotted Spider Mite [1, 5] | % Mortality Twospotted Spider Mite [1, 6] | % Mortality Twospotted Spider Mite [1, 7] | % Mortality Twospotted Spider Mite [1, 8] | % Mortality Corn Earworm [2, 9] | % Mortality Corn Earworm [2, 10] | % Mortality Corn Earworm [2, 11] | % Mortality Corn Earworm [2, 12] | % Mortality Adult Colorado Potato Beetle [3, 13] | % Mortality Adult Colorado Potato Beetle [3, 14] | % Mortality Adult Colorado Potato Beetle [3, 15] | % Mortality Adult Colorado Potato Beetle [3, 5] | % Mortality Cotton Aphid [4, 5] | % Mortality Cotton Aphid [4, 6] | % Mortality Cotton Aphid [4, 8] | % Mortality Twospotted Spider Mite [1, 16] | % Mortality Cotton Aphid [4, 16] |
| --- | --- | --- | --- | --- | --- | --- | --- | --- | --- | --- | --- | --- | --- | --- | --- | --- | --- |
| CC1(C)[C@H](C(=O)O[C@H](C#N)c2cccc(Oc3ccccc3)c2)[C@@H]1/C=C(\Cl)C(F)(F)F (racemic) [lambda-cyhalothrin, (S)-α-cyano-3-phenoxybenzyl-(Z)-(1R)-cis-3-(2-chloro-3,3,3-trifluoropropenyl)-2,2-dimethylcyclopropanecarboxylate and (R)-α-cyano-3-phenoxybenzyl-(Z)-(1S)-cis-3-(2-chloro-3,3,3-trifluoropropenyl)-2,2-dimethylcyclopropanecarboxylate] | 16% | 19% | 55% | 39% | 6% | 31% | 56% | 100% | 30% | 100% | 100% | 100% | 11% | 11% | 10% | – | – |
| CC1(C)C(C=C(Cl)Cl)C1C(=O)OC(C#N)c1ccc(F)c(Oc2ccccc2)c1 (racemic) [cyfluthrin, (RS)-α-cyano-4-fluoro-3-phenoxybenzyl (1RS)-cis-trans-3-(2,2-dichlorovinyl)-2,2-dimethylcyclopropanecarboxylate] | 14% | 17% | 23% | 11% | 13% | 69% | 100% | 100% | 10% | 70% | 80% | 100% | 4% | 6% | 9% | – | – |
| CC1(C)C(C=C(Cl)Cl)C1C(=O)OC(C#N)c1cccc(Oc2ccccc2)c1 (racemic) [alpha-cypermethrin, (S)-α-cyano-3-phenoxybenzyl (1R)-cis-3-(2,2-dichlorovinyl)-2,2-dimethylcyclopropanecarboxylate and (R)-α-cyano-3-phenoxybenzyl (1S)-cis-3-(2,2-dichlorovinyl)-2,2-dimethylcyclopropanecarboxylate] | 8% | 8% | – | 16% | 6% | 63% | 100% | 100% | 30% | 70% | 100% | 100% | – | 7% | 3% | 32% | 7% |
| CC1(C)[C@H](C(=O)O[C@H](C#N)c2cccc(Oc3ccccc3)c2)[C@@H]1C=C(Br)Br [delta-methrin, (S)-α-cyano-3-phenoxybenzyl (1R)-cis-3-(2,2-dibromovinyl)-2,2-dimethylcyclopropanecarboxylate] | 3% | 83% | – | 26% | 6% | 50% | 94% | 100% | 0% | 30% | 90% | 100% | – | 7% | 8% | 16% | 19% |
